Columns and labels:
Type in all cases: functional
A2780 [1] = test: Antiproliferative activity against human A2780 cells assessed as cell growth inhibition after 72 hrs by MTT assay; details: A2780, 72 h
MCF7 = test: Antiproliferative activity against human MCF7 cells assessed as cell growth inhibition after 72 hrs by MTT assay; details: MCF7, 72 h
MDA-MB-231 = test: Antiproliferative activity against ER negative human MDA-MB-231 cells assessed as cell growth inhibition after 72 hrs by MTT assay; details: MDA-MB-231, 72 h
[2] = Antiproliferative activity against human PANC1 cells assessed as cell growth inhibition after 72 hrs by MTT assay; details: PANC-1, 72 h
LNCaP = test: Antiproliferative activity against AR positive human LNCAP cells assessed as cell growth inhibition after 72 hrs by MTT assay
DU-145 = test: Antiproliferative activity against AR negative human DU145 cells assessed as cell growth inhibition after 72 hrs by MTT assay; details: DU-145, 72 h
WI-38 [3] = test: Antiproliferative activity against human WI38 cells assessed as cell growth inhibition after 72 hrs by MTT assay; details: WI-38, 72 h
A2780 [4] = test: Cell cycle arrest in human A2780 cells assessed as accumulation at subG1 phase at 0.06 uM after 24 hrs by flow cytometric analysis (reference value: 0.62%)
A2780 [5] = test: Cell cycle arrest in human A2780 cells assessed as accumulation at S phase at 0.06 uM after 24 hrs by flow cytometric analysis (reference value: 22.72%)
A2780 [6] = test: Cell cycle arrest in human A2780 cells assessed as accumulation at G2/M phase at 0.06 uM after 24 hrs by flow cytometric analysis (reference value: 21.81%)
A2780 [7] = test: Cell cycle arrest in human A2780 cells assessed as accumulation at subG1 phase at […] after 24 hrs by flow cytometric analysis (reference value: 0.62%)
A2780 [8] = test: Cell cycle arrest in human A2780 cells assessed as accumulation at G1 phase at […] after 24 hrs by flow cytometric analysis (reference value: 54.89%)
A2780 [9] = test: Cell cycle arrest in human A2780 cells assessed as accumulation at S phase at […] after 24 hrs by flow cytometric analysis (reference value: 22.72%)
A2780 [10] = test: Cell cycle arrest in human A2780 cells assessed as accumulation at subG1 phase at 1 uM after 24 hrs by flow cytometric analysis (reference value: 0.62%)
A2780 [11] = test: Cell cycle arrest in human A2780 cells assessed as accumulation at G1 phase at 1 uM after 24 hrs by flow cytometric analysis (reference value: 54.89%)
A2780 [12] = test: Cell cycle arrest in human A2780 cells assessed as accumulation at S phase at 1 uM after 24 hrs by flow cytometric analysis (reference value: 22.72%)
A2780 [13] = test: Cell cycle arrest in human A2780 cells assessed as accumulation at G2/M phase at 1 uM after 24 hrs by flow cytometric analysis (reference value: 21.81%)
WI-38 [14] = test: Cell cycle arrest in human WI38 cells assessed as accumulation at G2/M phase at 0.06 uM after 24 hrs by flow cytometric analysis (reference value: 17.36%)
WI-38 [15] = test: Cell cycle arrest in human WI38 cells assessed as accumulation at subG1 phase at […] after 24 hrs by flow cytometric analysis (reference value: 10.53%)
WI-38 [16] = test: Cell cycle arrest in human WI38 cells assessed as accumulation at G1 phase at […] after 24 hrs by flow cytometric analysis (reference value: 55.89%)
WI-38 [17] = test: Cell cycle arrest in human WI38 cells assessed as accumulation at subG1 phase at 1 uM after 24 hrs by flow cytometric analysis (reference value: 10.53%)
WI-38 [18] = test: Cell cycle arrest in human WI38 cells assessed as accumulation at S phase at 1 uM after 24 hrs by flow cytometric analysis (reference value: 16.25%)
WI-38 [19] = test: Cell cycle arrest in human WI38 cells assessed as accumulation at G2/M phase at 1 uM after 24 hrs by flow cytometric analysis (reference value: 17.36%)
A2780 [20] = test: Induction of apoptosis in human A2780 cells assessed as necrotic cells at 0.06 uM after 48 hrs by annexin V/PI double staining (reference value: 0.53%)
A2780 [21] = test: Induction of apoptosis in human A2780 cells assessed as necrotic cells at […] after 48 hrs by annexin V/PI double staining (reference value: 0.53%)
A2780 [22] = test: Induction of apoptosis in human A2780 cells assessed as late-stage apoptotic cells at […] after 48 hrs by annexin V/PI double staining (reference value: 10.20%)
A2780 [23] = test: Induction of apoptosis in human A2780 cells assessed as early-stage apoptotic cells at […] after 48 hrs by annexin V/PI double staining (reference value: 7.13%)
A2780 [24] = test: Induction of apoptosis in human A2780 cells assessed as viable cells at […] after 48 hrs by annexin V/PI double staining (reference value: 82.12%); details: A2780, 48 h, read-out: Activity
A2780 [25] = test: Induction of apoptosis in human A2780 cells assessed as necrotic cells at 1 uM after 48 hrs by annexin V/PI double staining (reference value: 0.53%)
A2780 [26] = test: Induction of apoptosis in human A2780 cells assessed as late-stage apoptotic cells at 1 uM after 48 hrs by annexin V/PI double staining (reference value: 10.20%)
WI-38 [27] = test: Induction of apoptosis in human WI38 cells assessed as necrotic cells at 0.06 uM after 48 hrs by annexin V/PI double staining (reference value: 0.99%)
WI-38 [28] = test: Induction of apoptosis in human WI38 cells assessed as early-stage apoptotic cells at 0.06 uM after 48 hrs by annexin V/PI double staining (reference value: 2.16%)
WI-38 [29] = test: Induction of apoptosis in human WI38 cells assessed as necrotic cells at […] after 48 hrs by annexin V/PI double staining (reference value: 0.99%)
WI-38 [30] = test: Induction of apoptosis in human WI38 cells assessed as late-stage apoptotic cells at […] after 48 hrs by annexin V/PI double staining (reference value: 16.26%)
WI-38 [31] = test: Induction of apoptosis in human WI38 cells assessed as viable cells at […] after 48 hrs by annexin V/PI double staining (reference value: 80.59%); details: WI-38, 48 h, read-out: Activity
WI-38 [32] = test: Induction of apoptosis in human WI38 cells assessed as necrotic cells at 1 uM after 48 hrs by annexin V/PI double staining (reference value: 0.99%)
WI-38 [33] = test: Induction of apoptosis in human WI38 cells assessed as late-stage apoptotic cells at 1 uM after 48 hrs by annexin V/PI double staining (reference value: 16.26%)
WI-38 [34] = test: Induction of apoptosis in human WI38 cells assessed as early-stage apoptotic cells at 1 uM after 48 hrs by annexin V/PI double staining (reference value: 2.16%)
WI-38 [35] = test: Induction of apoptosis in human WI38 cells assessed as viable cells at 1 uM after 48 hrs by annexin V/PI double staining (reference value: 80.59%); details: WI-38, 48 h, read-out: Activity

GI50 (A2780 [1])	GI50 (MCF7)	GI50 (MDA-MB-231)	GI50 (LNCaP)	GI50 (DU-145)	SMILES	GI50 [2]	GI50 (WI-38 [3])	Activity (A2780 [4])	Activity (A2780 [5])	Activity (A2780 [6])	Activity (A2780 [7])	Activity (A2780 [8])	Activity (A2780 [9])	Activity (A2780 [10])	Activity (A2780 [11])	Activity (A2780 [12])	Activity (A2780 [13])	Activity (WI-38 [14])	Activity (WI-38 [15])	Activity (WI-38 [16])	also measured
406 nM	468 nM	641 nM	450 nM	484 nM	COc1cc(OC)c(/C=C/S(=O)(=O)Cc2ccc(OC)c(NS(C)(=O)=O)n2)c(OC)c1	604 nM	> 10000 nM	0.95%	20.54%	21.08%	0.77%	57.35%	22.53%	7.27%	14.2%	19.16%	59.38%	13.96%	11.06%	61.63%	Activity (WI-38 [17]): 5.66%; Activity (WI-38 [18]): 9.93%; Activity (WI-38 [19]): 26.14%; Activity (A2780 [20]): 0.55%; Activity (A2780 [21]): 0.48%; Activity (A2780 [22]): 5.88%; Activity (A2780 [23]): 5.55%; viability at […] (A2780 [24]): 88%; Activity (A2780 [25]): 1.31%; Activity (A2780 [26]): 24.63%; Activity (WI-38 [27]): 0.86%; Activity (WI-38 [28]): 2.49%; Activity (WI-38 [29]): 1.11%; Activity (WI-38 [30]): 11.58%; viability at […] (WI-38 [31]): 84.4%; Activity (WI-38 [32]): 1.73%; Activity (WI-38 [33]): 21.15%; Activity (WI-38 [34]): 10.08%; viability at 1 µM (WI-38 [35]): 67%
62 nM	50 nM	57 nM	25 nM	75 nM	COc1cc(OC)c(/C=C/S(=O)(=O)Cc2ccc(OC)c(NCC(=O)O)c2)c(OC)c1 [RIGOSERTIB]	39 nM	> 10000 nM	0.63%	26.34%	19.63%	5.98%	37.71%	24.81%	0.32%	5.37%	33.83%	60.57%	18%	9.46%	54.39%	Activity (WI-38 [17]): 6.57%; Activity (WI-38 [18]): 10.36%; Activity (WI-38 [19]): 19.27%; Activity (A2780 [20]): 0.34%; Activity (A2780 [21]): 0.71%; Activity (A2780 [22]): 14.92%; Activity (A2780 [23]): 38.11%; viability at […] (A2780 [24]): 46.2%; Activity (A2780 [25]): 1.19%; Activity (A2780 [26]): 21.83%; Activity (WI-38 [27]): 1.25%; Activity (WI-38 [28]): 1.68%; Activity (WI-38 [29]): 1.89%; Activity (WI-38 [30]): 19.49%; viability at […] (WI-38 [31]): 73.2%; Activity (WI-38 [32]): 2.99%; Activity (WI-38 [33]): 22.43%; Activity (WI-38 [34]): 8.88%; viability at 1 µM (WI-38 [35]): 65.7%

Source: ChEMBL document CHEMBL3259791, “Discovery of (E)-3-((styrylsulfonyl)methyl)pyridine and (E)-2-((styrylsulfonyl)methyl)pyridine derivatives as anticancer agents: synthesis, structure-activity relationships, and biological activities” (J Med Chem, 2014)
